Laboratory results taken from ChEMBL document CHEMBL1201862, “PubChem BioAssay data set” (2004).
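Compound exposure: 48 hours, 5 concentrations, 96-well plates. Here, GI50 denotes the concentration required for 50% inhibition of growth.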 Calls of active or inactive are those of the source. No stated cut-off is given here; in the data, active = GI50 up to about 1.1 µM and inactive = higher.

Key:
Experiment in all cases: NCI tumour cell line growth inhibition, 48 h
[1] = system: RXF 631
[2] = system: HOP-18
[3] = system: XF498
[4] = system: KM-20L2
[5] = system: DMS-114
[6] = system: DMS-273
[7] = system: M19-MEL
[8] = system: DLD-1
[9] = system: SNB-78

| Structure (SMILES) | GI50 [1] | GI50 [2] | GI50 [3] | GI50 [4] | GI50 [5] | GI50 [6] | GI50 [7] | GI50 [8] | GI50 [9] |
| --- | --- | --- | --- | --- | --- | --- | --- | --- | --- |
| Cc1cccc(-c2cc(=O)c3cc(C)c(C)c(C(=O)O)c3o2)c1 | > 100 µM (inactive) | > 100 µM (inactive) | > 100 µM (inactive) | > 100 µM (inactive) | > 100 µM (inactive) | > 100 µM (inactive) | > 100 µM (inactive) | > 100 µM (inactive) | > 100 µM (inactive) |
| CC1=C(C(=O)Nc2ccccc2C)C(c2ccccc2C)C(C(=O)Nc2ccccc2C)=C(C)N1 | 26.1 µM (inactive) | 18.4 µM (inactive) | 18.7 µM (inactive) | 20.9 µM (inactive) | 26.6 µM (inactive) |  | 21.7 µM (inactive) | 14.7 µM (inactive) | 33 µM (inactive) |
| O=C(c1ccccc1)C1OC12C(=O)Nc1c(Cl)cc(Cl)cc12 (stereo not drawn) | 27 µM (inactive) | > 54.7 µM (inactive) | 10.7 µM (inactive) | 72.1 µM (inactive) | 30.1 µM (inactive) | 15.9 µM (inactive) | 27 µM (inactive) | 18.6 µM (inactive) | > 50.5 µM (inactive) |
| Cn1cc(C(=O)C[n+]2ccccc2)c2ccccc21 |  |  | 86.9 µM (inactive) | 33 µM (inactive) | 49.7 µM (inactive) | 42.3 µM (inactive) | 59.8 µM (inactive) | > 100 µM (inactive) |  |
| O=C1c2c(O)cccc2C(C(=O)CCCCC(=O)C2c3cccc(O)c3C(=O)c3c(O)cccc32)c2cccc(O)c21 | 0.78 µM (active) | 0.652 µM (active) | 0.501 µM (active) | 0.918 µM (active) | 0.522 µM (active) | 1.63 µM (inactive) |  | 1.04 µM (active) | 0.55 µM (active) |
| C=C(C[N+](C)(C)C)N/N=C/c1oc(-c2ccc(OC)c(OC)c2)c(-c2ccc(OC)c(OC)c2)c1[N+](=O)[O-] |  | 22.1 µM (inactive) | 23.7 µM (inactive) | 31.7 µM (inactive) |  |  | 15.5 µM (inactive) | 19.9 µM (inactive) | 36.4 µM (inactive) |
| COC(=O)C1C(C(=O)OC)C2C(=O)C3C(C(=O)OC)C(C(=O)OC)C3C(=O)C12 (stereo not drawn) | > 100 µM (inactive) | > 100 µM (inactive) | > 100 µM (inactive) | > 100 µM (inactive) |  | > 100 µM (inactive) | > 100 µM (inactive) |  | 64.3 µM (inactive) |
| Cc1ccc(S(=O)(=O)Nc2cccc(C)c2C)cc1 | 66.1 µM (inactive) | > 100 µM (inactive) | < 0.01 µM (active) |  | 28.8 µM (inactive) | 45.6 µM (inactive) | 67.5 µM (inactive) |  | 62.1 µM (inactive) |
| Cc1nc2c(o1)C(=O)c1ccccc1/C2=N\c1ccccc1 | > 10 µM (inactive) | 1.85 µM (inactive) | 2.86 µM (inactive) | 20.5 µM (inactive) | 1.48 µM (inactive) | 2.49 µM (inactive) | 1.82 µM (inactive) | 13.7 µM (inactive) | 3.22 µM (inactive) |
| O=C1NC(=S)NC(=O)C1=Cc1ccc[nH]1 |  | 36.4 µM (inactive) | 17.7 µM (inactive) | 5.94 µM (inactive) | 10.8 µM (inactive) | 3.79 µM (inactive) | 13.4 µM (inactive) | 6.85 µM (inactive) | 19.4 µM (inactive) |
| C[N+]1=c2c3cccc4cccc(c(=O)n2CCC1)c43 |  | 53.8 µM (inactive) | 18.6 µM (inactive) | 20 µM (inactive) | 20.6 µM (inactive) | 24.4 µM (inactive) | 17.9 µM (inactive) | 21.4 µM (inactive) | 29 µM (inactive) |
| Oc1c(Cl)c2nccnc2c2ccccc12 |  | 36.9 µM (inactive) | > 100 µM (inactive) | > 100 µM (inactive) | > 100 µM (inactive) | > 100 µM (inactive) | > 100 µM (inactive) | > 100 µM (inactive) | > 100 µM (inactive) |
| COC(=O)CCC1=NOC(CC2CC(CCC(=O)OC)=NO2)C1 (stereo not drawn) | > 100 µM (inactive) | > 100 µM (inactive) | > 100 µM (inactive) | > 100 µM (inactive) | > 100 µM (inactive) | > 100 µM (inactive) | > 100 µM (inactive) | > 100 µM (inactive) | > 100 µM (inactive) |
| O=C1NC(=O)c2c1n(Cc1ccccc1)c(=O)n2Cc1ccccc1 |  | > 100 µM (inactive) |  | > 100 µM (inactive) | > 100 µM (inactive) | > 100 µM (inactive) | > 100 µM (inactive) | > 100 µM (inactive) | > 100 µM (inactive) |
| N#C[C@]12CC3(CC[C@H]1CC1(C2)OCCO1)OCCO3 | > 100 µM (inactive) | > 100 µM (inactive) |  | > 100 µM (inactive) | > 100 µM (inactive) | > 100 µM (inactive) | > 100 µM (inactive) | > 100 µM (inactive) | > 100 µM (inactive) |
| Cc1noc2c1C(=O)CCC2 |  | > 100 µM (inactive) | > 100 µM (inactive) | > 100 µM (inactive) | > 100 µM (inactive) |  | > 100 µM (inactive) | > 100 µM (inactive) | > 100 µM (inactive) |
| NC1C2(CCCCCC2)NC(=O)C12CCCCCC2 (stereo not drawn) | > 100 µM (inactive) | > 100 µM (inactive) | > 100 µM (inactive) |  | > 100 µM (inactive) | > 100 µM (inactive) |  | > 100 µM (inactive) | > 100 µM (inactive) |
| CCOC(=O)c1[nH]c(CN(C)Cc2[nH]c(C(=O)OCC)c(C)c2C(=O)OCc2ccccc2)c(C(=O)OCc2ccccc2)c1C | 4.11 µM (inactive) | > 100 µM (inactive) |  | 3.04 µM (inactive) | 12.7 µM (inactive) | 10 µM (inactive) |  | 33.9 µM (inactive) | > 100 µM (inactive) |
| C[N+]12c3ccccc3O[B-]1(c1ccccc1)Oc1ccccc12 (stereo not drawn) |  | 42.9 µM (inactive) |  |  | 17.6 µM (inactive) | 29.2 µM (inactive) |  | 18.2 µM (inactive) | 47 µM (inactive) |
| COc1ccc2nc3cc(Cl)ccc3c(SCC(=O)Nc3ccccc3-c3ccccc3NC(=O)CSc3c4ccc(Cl)cc4nc4ccc(OC)cc34)c2c1 |  | > 100 µM (inactive) | > 100 µM (inactive) | > 100 µM (inactive) | > 100 µM (inactive) | > 100 µM (inactive) | > 100 µM (inactive) | > 100 µM (inactive) | > 100 µM (inactive) |
| CNC1=Nc2ccc(Cl)cc2C(c2ccccc2)=NN1C | 74 µM (inactive) |  | 31.6 µM (inactive) | > 100 µM (inactive) | 53.2 µM (inactive) | > 100 µM (inactive) | > 100 µM (inactive) | > 100 µM (inactive) | > 100 µM (inactive) |
| O=C(Cc1nc(-c2ccccc2)cc(=O)n1-c1ccccc1Cl)c1ccncc1 | > 100 µM (inactive) | > 100 µM (inactive) |  | > 100 µM (inactive) | > 100 µM (inactive) | > 100 µM (inactive) | > 100 µM (inactive) | > 100 µM (inactive) | > 100 µM (inactive) |
| COC(=O)c1c(O)ccc(O)c1C(C(C)=O)C(C)=O |  |  | > 100 µM (inactive) |  | > 100 µM (inactive) | > 100 µM (inactive) | > 100 µM (inactive) | > 100 µM (inactive) | > 100 µM (inactive) |
